This note sets out measurements from article PMC3844262 (Journal of immunology (Baltimore, Md. : 1950), 2013).

The subject of assay [1] is CD8+ T cells from acute day 8 LCMV-infected mice. Format: cell-based, C57BL/6 (B6) mice.
Assay [2] has as its system GP34-A11R cross-reactive T cell lines (TCL #1, #3, #7). In kind it is cell-based, C57BL/6 (B6) mice.
The target in a further assay is H-2K^b (Mus musculus, UniProt P01901). Format: binding, murine.
Sequence of H-2K^b (P01901 whole entry, looked up): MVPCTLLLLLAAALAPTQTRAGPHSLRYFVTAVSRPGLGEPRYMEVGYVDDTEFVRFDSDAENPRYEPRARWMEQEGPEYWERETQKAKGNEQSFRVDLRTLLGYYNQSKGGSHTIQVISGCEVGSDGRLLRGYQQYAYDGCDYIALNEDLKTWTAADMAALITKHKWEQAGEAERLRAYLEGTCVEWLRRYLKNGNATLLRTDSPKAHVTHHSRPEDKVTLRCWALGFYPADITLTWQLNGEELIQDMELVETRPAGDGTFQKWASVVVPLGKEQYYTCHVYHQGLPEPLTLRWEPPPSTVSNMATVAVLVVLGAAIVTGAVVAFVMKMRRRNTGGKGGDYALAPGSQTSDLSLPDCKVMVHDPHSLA

SIYRYYGL: the “IFNγ response, % of total CD8+ T cells” value in assay [1] is given as “not observed”.
For SIINFAAL [OVA-AA], the “CD8+ T cells responding (IFNγ), TCL #7” value in assay [2] is “not cross-reactive”. The “IFNγ production ex vivo, acute LCMV-infected mice (OVA hybrid experiment)” value in assay [1] is listed as “not observed”.
Take SIINFEKL [OVA]: the “CD8+ T cells responding (IFNγ), TCL #7” value in assay [2] is “does not cross-react”. The “Tm of K^b-peptide complex” value on H-2K^b came to 51.5 °C.
